Assay results as given in patent US8883963B2 (Cadila Healthcare Limited, priority 2007, dated 2014).

Experiments:
[1] = tested on: RIN5F (Rat Insulinoma) cells; assay: In vitro glucose-dependent insulin secretion (RIN5F cell assay screening protocol); format: cell-based; conditions: 16.7 mM glucose load
Human GLP-1 receptor = target: T1, Human GLP-1 receptor (Homo sapiens, UniProt P43220); assay: In vitro Human GLP-1 R agonist activity (cyclic AMP determination) in CHO/human GLP1R cells; format: cell-based
T1 construct: The full-length cDNA was cloned in pcDNA3.1(+); expressed in transfected cells

human glucagon receptor = target: T2, human glucagon receptor (Homo sapiens, UniProt P47871); assay: In vitro human glucagon antagonist activity (inhibition of cAMP production) in CHO/human glucagon R cells; format: cell-based; conditions: with saturated concentration of glucagon peptide
T2 construct: The full-length cDNA was cloned in pcDNA3.1 (Invitrogen); expressed in transfected cells

DPP IV = DPP IV (Homo sapiens, UniProt P27487); assay: Stability against DPP IV enzyme; format: in vitro ADME; conditions: 37° C.; for % degradation of peptidomimetics in 24 h when incubated with DPP-IV enzyme: 2 μM peptidomimetic; for half-life at 2 μM: DPP IV enzyme, pH 7.8, 2 μM peptidomimetic, read-out: half-life (t1/2) when incubated with DPP-IV enzyme
Description: (§1) Reactions were terminated by the addition of TFA/H2O (15 mL, 10% (v/v)). […] The column was equilibrated with TFA/H20, at a flow rate of 1 mL/min.

[2] = Stability in human plasma; format: in vitro ADME; conditions: 2 μM peptidomimetic, pooled human plasma, 37° C.; for half-life at 2 μM: pH 7.8, read-out: half-life (t1/2) when incubated with human plasma
Description: as §1

[3] = Stability in simulated gastric fluid; format: in vitro ADME; conditions: 2 μM peptidomimetic, simulated gastric fluid pH 1.5, 37° C.; for half-life at 2 μM: read-out: half-life (t1/2) when incubated with simulated gastric fluid
Description: as §1

[4] = Stability in simulated intestinal fluid; format: in vitro ADME; conditions: 2 μM peptidomimetic, simulated intestinal fluid pH 7.5, 37° C.; for half-life at 2 μM: read-out: half-life (t1/2) when incubated with simulated intestinal fluid
Description: as §1

[5] = Stability in liver microsomes; format: in vitro ADME; conditions: 2 μM peptidomimetic, human liver microsomes, 37° C.; for half-life at 2 μM: pH 7.8, read-out: half-life (t1/2) when incubated with liver microsomes
Description: as §1

DPP IV, sequence (P27487 whole entry, species assumed): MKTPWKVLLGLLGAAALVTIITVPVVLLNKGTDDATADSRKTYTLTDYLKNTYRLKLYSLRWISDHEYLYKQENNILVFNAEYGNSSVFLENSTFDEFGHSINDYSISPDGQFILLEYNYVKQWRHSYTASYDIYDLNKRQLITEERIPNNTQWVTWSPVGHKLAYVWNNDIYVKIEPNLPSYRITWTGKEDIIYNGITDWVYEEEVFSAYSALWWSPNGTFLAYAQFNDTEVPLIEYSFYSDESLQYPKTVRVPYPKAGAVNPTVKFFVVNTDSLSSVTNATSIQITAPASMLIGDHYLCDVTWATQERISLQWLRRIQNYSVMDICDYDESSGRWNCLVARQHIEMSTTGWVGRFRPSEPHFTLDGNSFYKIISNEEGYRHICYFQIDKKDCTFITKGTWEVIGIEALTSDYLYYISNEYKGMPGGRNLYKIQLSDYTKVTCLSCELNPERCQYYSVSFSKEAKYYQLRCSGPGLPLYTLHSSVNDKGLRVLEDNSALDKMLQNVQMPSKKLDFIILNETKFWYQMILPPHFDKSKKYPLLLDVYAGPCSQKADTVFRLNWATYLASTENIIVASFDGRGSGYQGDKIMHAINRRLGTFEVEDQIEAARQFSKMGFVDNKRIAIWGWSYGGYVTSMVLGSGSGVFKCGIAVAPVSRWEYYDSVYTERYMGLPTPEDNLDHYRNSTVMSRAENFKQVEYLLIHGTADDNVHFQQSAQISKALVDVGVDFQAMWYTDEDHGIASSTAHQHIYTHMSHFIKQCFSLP
T2 sequence (P47871 26-477): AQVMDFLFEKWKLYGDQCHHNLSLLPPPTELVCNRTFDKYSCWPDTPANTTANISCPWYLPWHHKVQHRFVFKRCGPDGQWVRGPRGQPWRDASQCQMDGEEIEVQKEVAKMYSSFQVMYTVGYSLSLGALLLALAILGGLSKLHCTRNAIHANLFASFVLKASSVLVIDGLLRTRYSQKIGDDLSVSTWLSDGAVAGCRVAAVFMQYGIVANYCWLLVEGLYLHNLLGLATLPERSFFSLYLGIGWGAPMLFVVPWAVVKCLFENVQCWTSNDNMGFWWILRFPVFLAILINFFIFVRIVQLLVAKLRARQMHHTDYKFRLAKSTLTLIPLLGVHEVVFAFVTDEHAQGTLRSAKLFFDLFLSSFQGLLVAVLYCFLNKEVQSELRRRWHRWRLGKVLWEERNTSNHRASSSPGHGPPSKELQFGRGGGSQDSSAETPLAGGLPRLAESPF
T1 sequence (P43220 24-463): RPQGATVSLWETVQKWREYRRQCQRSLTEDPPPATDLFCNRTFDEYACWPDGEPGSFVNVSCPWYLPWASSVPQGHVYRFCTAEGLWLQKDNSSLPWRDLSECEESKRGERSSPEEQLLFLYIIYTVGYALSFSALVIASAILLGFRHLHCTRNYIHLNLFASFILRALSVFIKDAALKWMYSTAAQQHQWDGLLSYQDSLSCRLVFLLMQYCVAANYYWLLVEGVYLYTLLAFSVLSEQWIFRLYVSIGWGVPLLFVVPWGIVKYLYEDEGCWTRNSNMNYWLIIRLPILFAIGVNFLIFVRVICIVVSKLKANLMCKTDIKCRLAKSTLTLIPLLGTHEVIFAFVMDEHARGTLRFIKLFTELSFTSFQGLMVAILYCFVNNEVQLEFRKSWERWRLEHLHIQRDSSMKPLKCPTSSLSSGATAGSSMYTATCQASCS

Structure (SMILES)	Insulin secretion ([1]; 0.1 nM test compd.)	Insulin secretion ([1]; 1 nM test compd.)	Insulin secretion ([1]; 10 nM test compd.)	Human GLP-1 R activity (cAMP release), % activity with respect to control (Human GLP-1 receptor; 1 nM test compound)	Human GLP-1 R activity (cAMP release), % activity with respect to control (Human GLP-1 receptor; 10 nM test compound)	Human GLP-1 R activity (cAMP release), % activity with respect to control (Human GLP-1 receptor; 100 nM test compound)	Human GLP-1 R activity (cAMP release), % activity with respect to control (Human GLP-1 receptor; 1 μM test compound)	Human GLP-1 R activity (cAMP release), % activity with respect to control (Human GLP-1 receptor; 10 μM test compound)	Human Glucagon receptor antagonistic activity shown as inhibition of cAMP production of Glucagon peptide (human glucagon receptor; 1 nM test compound)	Human Glucagon receptor antagonistic activity shown as inhibition of cAMP production of Glucagon peptide (human glucagon receptor; 10 nM test compound)	Human Glucagon receptor antagonistic activity shown as inhibition of cAMP production of Glucagon peptide (human glucagon receptor; 100 nM test compound)	Human Glucagon receptor antagonistic activity shown as inhibition of cAMP production of Glucagon peptide (human glucagon receptor; 1 μM test compound)	Human Glucagon receptor antagonistic activity shown as inhibition of cAMP production of Glucagon peptide (human glucagon receptor; 10 μM test compound)	% degradation of peptidomimetics in 24 h when incubated with DPP-IV enzyme (DPP IV)	half-life at 2 μM (DPP IV)	% degradation of peptidomimetics in 24 h when incubated with human plasma [2]	half-life at 2 μM [2]	% degradation of peptidomimetics in 24 h when incubated with simulated gastric fluid [3]	half-life at 2 μM [3]	% degradation of peptidomimetics in 24 h when incubated with simulated intestinal fluid [4]	further results
CCc1cc(OC)ccc1-c1ccc(CC(NC(=O)[C@H](CC(=O)O)NC(=O)[C@H](CO)NC(=O)[C@@H](NC(=O)C(C)(Cc2ccccc2F)NC(=O)[C@@H](NC(=O)CNC(=O)C(CCC#N)NC(=O)C(C)(C)NC(=O)[C@@H](N)Cc2c[nH]cn2)[C@H](C)O)[C@H](C)O)C(=O)NC(CCCc2ccccc2)C(N)=O)cc1 (single isomer, unassigned) [compound 114]	16.6 ± 0.41 pg/µg/h	22.9 ± 0.32 pg/µg/h	36.6 ± 0.19 pg/µg/h	82 ± 0.22%	87 ± 0.12%	92 ± 0.14%	99 ± 0.22%	99 ± 0.26%	4 ± 0.02 pmol/ml/μg prt	2 ± 0.15 pmol/ml/μg prt	0 pmol/ml/μg prt	0 pmol/ml/μg prt	0 pmol/ml/μg prt	00%	> 24 h	00%	> 24 h	52%	4 h	00%	half-life at 2 μM [4]: > 24 h; % degradation of peptidomimetics in 24 h when incubated with liver microsomes [5]: 81%; half-life at 2 μM [5]: 2 h
CCc1cc(OC)ccc1-c1ccc(CC(NC(=O)[C@H](CC(=O)O)NC(=O)[C@H](CO)NC(=O)[C@@H](NC(=O)C(C)(Cc2ccccc2F)NC(=O)[C@@H](NC(=O)CNC(=O)C(CCC#N)NC(=O)C(C)(C)NC(=O)[C@@H](N)Cc2c[nH]cn2)[C@H](C)O)[C@@H](C)O)C(=O)NC(CCCc2ccccc2F)C(N)=O)cc1 (single isomer, unassigned) [compound 112]	15.3 ± 0.19 pg/µg/h	21.2 ± 0.11 pg/µg/h	35.5 ± 0.19 pg/µg/h	39 ± 0.10%	81 ± 0.08%	89 ± 0.09%	96 ± 0.11%	99 ± 0.16%	6 ± 0.01 pmol/ml/μg prt	5 ± 0.02 pmol/ml/μg prt	2 ± 0.13 pmol/ml/μg prt	0 pmol/ml/μg prt	0 pmol/ml/μg prt	00%	> 24 h	00%	> 24 h	49%	4 h	00%	half-life at 2 μM [4]: > 24 h; % degradation of peptidomimetics in 24 h when incubated with liver microsomes [5]: 82%; half-life at 2 μM [5]: 2 h
CCc1cc(OC)ccc1-c1ccc(CC(NC(=O)[C@H](CC(=O)O)NC(=O)[C@H](CO)NC(=O)[C@@H](NC(=O)[C@H](Cc2ccccc2)NC(=O)[C@@H](NC(=O)CNC(=O)C(CCC#N)NC(=O)C(C)(C)NC(=O)[C@@H](N)Cc2c[nH]cn2)[C@@H](C)O)[C@@H](C)O)C(=O)NC(CCCc2cc(C)cc(C)c2)C(N)=O)cc1 (single isomer, unassigned) [compound 30]	17.1 ± 0.11 pg/µg/h	23.1 ± 0.16 pg/µg/h	37.0 ± 0.29 pg/µg/h	38 ± 0.12%	78 ± 0.15%	86 ± 0.18%	95 ± 0.03%	98 ± 0.09%	22 ± 0.03 pmol/ml/μg prt	21 ± 0.05 pmol/ml/μg prt	20 ± 0.07 pmol/ml/μg prt	18 ± 0.04 pmol/ml/μg prt	18 ± 0.03 pmol/ml/μg prt	00%	> 24 h	00%	> 24 h	00%	> 24 h	00%	half-life at 2 μM [4]: > 24 h; half-life (t1/2) when incubated with liver microsomes [5]: (5) h; % degradation of peptidomimetics in 24 h when incubated with liver microsomes [5]: 33%
